Measurements: PMC3492916 (Molecular Nutrition & Food Research, 2011)
Entries after “also recorded” stand apart in the source; their conditions may differ.

Key:
[1] = target: P-glycoprotein (Sus scrofa, UniProt K7GMM7); test: Active transport study with inhibitor PSC 833; format: in vitro ADME, porcine
[2] = target: T1, BCRP/ABCG2 (Sus scrofa, UniProt Q8MIB3); test: Active transport study with inhibitor Fumitremorgin C; format: in vitro ADME, porcine
T1 sequence (Q8MIB3 1-656): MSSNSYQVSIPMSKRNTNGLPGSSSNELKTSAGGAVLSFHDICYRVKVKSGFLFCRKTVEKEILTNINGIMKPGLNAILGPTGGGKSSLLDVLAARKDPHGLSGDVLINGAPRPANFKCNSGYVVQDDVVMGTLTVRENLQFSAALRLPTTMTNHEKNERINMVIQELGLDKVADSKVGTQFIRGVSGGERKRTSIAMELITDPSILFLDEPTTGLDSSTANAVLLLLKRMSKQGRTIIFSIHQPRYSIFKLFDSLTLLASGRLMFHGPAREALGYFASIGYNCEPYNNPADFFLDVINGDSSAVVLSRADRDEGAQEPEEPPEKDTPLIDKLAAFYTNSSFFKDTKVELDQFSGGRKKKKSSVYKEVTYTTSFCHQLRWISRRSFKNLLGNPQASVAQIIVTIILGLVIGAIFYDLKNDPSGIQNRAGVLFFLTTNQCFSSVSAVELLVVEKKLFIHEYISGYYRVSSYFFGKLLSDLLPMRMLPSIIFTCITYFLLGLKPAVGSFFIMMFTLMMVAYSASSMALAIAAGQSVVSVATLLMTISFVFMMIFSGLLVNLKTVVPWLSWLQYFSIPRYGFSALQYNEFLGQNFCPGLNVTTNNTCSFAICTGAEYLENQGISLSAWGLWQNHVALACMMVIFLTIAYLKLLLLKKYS

[3] = test system: PBCEC; test: Cytotoxicity; format: cell-based, porcine; details: 24 h; for Impact on cell viability (CCK-8 assay): up to a concentration of 20 mM (so in the source), with corresponding -inine form
[4] = test system: Pgp; details: cited from earlier work
[5] = test system: PBCEC monolayer; test: TEER measurement; format: cell-based, porcine; details: for Influence on barrier integrity (TEER): 10 μM (a) or 10 μM (a/b), in comparison to the control
[6] = test system: PBCEC monolayers; test: Active transport study, equal concentrations in both compartments; details: for Enrichment of substance concentration in one compartment: ET 10 μM, EC 1 μM a/b, over 48 h
[7] = Permeability across PBCEC monolayers on Transwell filters; details: pig
[8] = test system: PBCEC monolayers; test: as above; details: apical addition; for Time of maximum of permeation into basolateral compartment / Maximum of permeation into basolateral compartment: EM and ET 10 μM, EC 1 μM; for Maximum of permeation into basolateral compartment: t = 0 h as 100%
[9] = cited from earlier work
[10] = test system: Caco-2; details: Caco-2 model, after 6 h; cited from earlier work
[11] = Active transport study, equal concentrations in both compartments; details: pig, PBCEC monolayers
[12] = test system: PBCEC; test: Fluorescence microscopy of occludin and cell nuclei; format: cell-based, porcine; details: 10 μM a/b, 24 h
[13] = 10 μM inhibitor a/b, preincubated 1 h, EM 10 μM a/b

Chain of P-glycoprotein (K7GMM7 1-1248): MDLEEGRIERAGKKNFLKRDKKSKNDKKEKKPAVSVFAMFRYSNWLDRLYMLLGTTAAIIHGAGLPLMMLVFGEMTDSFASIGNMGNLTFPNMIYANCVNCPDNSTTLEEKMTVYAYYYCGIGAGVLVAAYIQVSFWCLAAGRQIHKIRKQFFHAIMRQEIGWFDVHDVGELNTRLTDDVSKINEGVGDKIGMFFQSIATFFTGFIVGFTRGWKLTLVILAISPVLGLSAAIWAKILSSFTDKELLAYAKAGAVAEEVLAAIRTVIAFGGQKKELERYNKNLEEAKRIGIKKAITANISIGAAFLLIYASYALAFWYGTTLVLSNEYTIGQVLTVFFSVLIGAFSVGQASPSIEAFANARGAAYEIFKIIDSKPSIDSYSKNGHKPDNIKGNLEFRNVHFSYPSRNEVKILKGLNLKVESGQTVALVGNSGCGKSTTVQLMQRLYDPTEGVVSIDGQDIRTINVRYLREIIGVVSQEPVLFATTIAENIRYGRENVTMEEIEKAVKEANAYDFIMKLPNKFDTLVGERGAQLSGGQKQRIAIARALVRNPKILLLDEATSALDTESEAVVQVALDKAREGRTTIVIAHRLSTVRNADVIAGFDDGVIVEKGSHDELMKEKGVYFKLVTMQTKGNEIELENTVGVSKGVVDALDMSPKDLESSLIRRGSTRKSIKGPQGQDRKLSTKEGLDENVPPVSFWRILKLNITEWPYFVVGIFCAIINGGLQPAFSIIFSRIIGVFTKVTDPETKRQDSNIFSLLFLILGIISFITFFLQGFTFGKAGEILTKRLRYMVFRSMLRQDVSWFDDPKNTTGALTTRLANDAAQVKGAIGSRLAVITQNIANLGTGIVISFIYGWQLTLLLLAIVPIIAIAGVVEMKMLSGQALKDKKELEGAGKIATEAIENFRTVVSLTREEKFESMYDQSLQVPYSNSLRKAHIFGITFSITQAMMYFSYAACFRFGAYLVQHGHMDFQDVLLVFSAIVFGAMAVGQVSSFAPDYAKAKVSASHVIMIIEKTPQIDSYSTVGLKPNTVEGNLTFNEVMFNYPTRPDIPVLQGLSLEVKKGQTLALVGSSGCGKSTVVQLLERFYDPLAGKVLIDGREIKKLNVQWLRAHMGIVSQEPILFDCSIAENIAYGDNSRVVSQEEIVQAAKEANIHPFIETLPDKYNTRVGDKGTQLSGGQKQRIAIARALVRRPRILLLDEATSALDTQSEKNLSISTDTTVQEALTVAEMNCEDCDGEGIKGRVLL

C/C=C/C[C@@H](C)C(=O)[C@H]1C(=O)N[C@@H](C(C)C)C(=O)N(C)CC(=O)N(C)[C@@H](CC(C)C)C(=O)N[C@@H](C(C)C)C(=O)N(C)[C@@H](CC(C)C)C(=O)N[C@@H](C)C(=O)N[C@H](C)C(=O)N(C)[C@@H](CC(C)C)C(=O)N(C)[C@@H](CC(C)C)C(=O)N(C)[C@@H](C(C)C)C(=O)N1C [PSC, PSC 833]
Influence of inhibitor on the transport of EM [1, 13]: lagging of enrichment in the apical compartment

COc1ccc2c3c([nH]c2c1)[C@H](C=C(C)C)N1C(=O)[C@@H]2CCCN2C(=O)[C@@H]1C3 [FTC, Fumitremorgin C]
Influence of inhibitor on the transport of EM [2, 13]: total inhibition of the transport process

C[C@@H](CO)NC(=O)[C@@H]1C=C2c3cccc4[nH]cc(c34)C[C@H]2N(C)C1 [EM, ergometrine]
Impact on cell viability (CCK-8 assay) [3]: no impact | Pgp inhibition [4]: Pgp inhibitors | Influence on barrier integrity (TEER) ([5]; 1 μM (a), 24 h): No influence; also recorded: no impact on barrier integrity | Concentration in apical compartment, % of the initial concentration ([6]; 10 μM a/b, after 24 h): about 117% | Total enrichment in apical compartment ([6]; 10 μM a/b, after 48 h): 130% | Substance in cell lysate ([6]; 10 μM a/b, during the whole experiment (48 h)): no EM was detectable in cell lysate | Transporter substrate property ([2]; concluded from total inhibition by FTC): substrate for BCRP/ABCG2 transporter | Papp A→B [7]: 1.05 ×10⁻⁶ cm/s | Papp B→A [7]: 6.05 ×10⁻⁶ cm/s | Time before which first traces were not detectable in basolateral compartment ([8]; 10 μM): ≥ 6 h | Time of maximum of permeation into basolateral compartment [8]: 24 h | Maximum of permeation into basolateral compartment [8]: 29% | Concentration in apical compartment, % of the initial concentration ([1]; EM 10 μM a/b with PSC 833 10 μM a/b, after 48 h): 110%

CN1C[C@H](C(=O)N[C@]2(C)O[C@@]3(O)[C@@H]4CCCN4C(=O)[C@H](Cc4ccccc4)N3C2=O)C=C2c3cccc4[nH]cc(c34)C[C@H]21 [ET, ergotamine]
Impact on cell viability (CCK-8 assay) [3]: no impact | Pgp inhibition [4]: Pgp inhibitors | Influence on barrier integrity (TEER) ([5]; 1 μM (a), 24 h): No influence; also recorded: no impact on barrier integrity | Enrichment of substance concentration in one compartment [6]: no enrichment | Papp A→B [7]: 11.9 ×10⁻⁶ cm/s | Papp B→A [7]: 18 ×10⁻⁶ cm/s | efflux ratio at 24 h, 10 μM [7]: < 2 | Time of maximum of permeation into basolateral compartment [8]: 12 h | Maximum of permeation into basolateral compartment [8]: 40% | Detection in CSF ([9]; 18 patients, different application methods): no ergotamine in CSF | Oral bioavailability ([9]; humans, peptide ergot alkaloids like ergotamine): less than 2% | Concentration in cerebrospinal fluid (CSF) ([9]; ten patients): 0.4 ng/mL

ergovaline/ ergovalinine
Initial concentration reaching the other compartment [10]: 40%

CC(C)[C@@]1(NC(=O)[C@@H]2C=C3c4cccc5[nH]cc(c45)C[C@H]3N(C)C2)O[C@@]2(O)[C@@H]3CCCN3C(=O)[C@H](Cc3ccccc3)N2C1=O [EC, ergocristine]
Concentration at which significant differences in cell viability start ([3]; CCK-8): 5 µM | Concentration at which significant results in cell viability start ([3]; CCK-8, Figure 2 legend): 5000 µM | Cell viability (CCK-8 assay) ([3]; from 5 μM, in equilibrium with -inine form): 85 % of the control | Effect on barrier integrity (TEER) ([5]; 1 μM (a)): no effect | TEER, % of initial TEER ([5]; 1 μM (a/b)): about 80% | TEER, % of initial TEER ([5]; 5 μM (a)): about 80% | TEER, % of the starting value ([5]; 5 μM (a/b)): 50–70% | TEER, % of the starting value ([5]; 5 μM (b)): 50–70% | TEER, % of the starting value ([5]; 10 μM (a)): 50–70% | TEER, % of the starting value ([5]; 10 μM (b)): 50–70% | TEER of incubated samples ([5]; 10 mM (so in the source) a/b, 24 h, samples of immunostaining, control >1000): < 200 Ωcm^2 | recovery at 48 h, 1 µM [11]: 60% | Enrichment of substance concentration in one compartment [6]: no enrichment | Papp A→B [7]: 20.5 ×10⁻⁶ cm/s | Papp B→A [7]: 26.1 ×10⁻⁶ cm/s | Concentration in basolateral compartment ([8]; 1 μM, after 24 h): 32% | Time of maximum of permeation into basolateral compartment [8]: 6 h | Maximum of permeation into basolateral compartment [8]: 49% | Immunostaining of occludin and cell nuclei [12]: disrupted cells could be visualized by the absence of nuclei
